# Measurements from PMC5607274, “An iterative compound screening contest method for identifying target protein inhibitors using the tyrosine-protein kinase Yes” (Scientific Reports, 2017).
# Target: T1, human recombinant Yes [a.a. 2–543 (end)] (Homo sapiens, UniProt P07947)
# T1 construct: human recombinant Yes [a.a; 2–543 (end)]; purchased BPS Bioscience 40488
# Assay: ADP-Glo kinase assay, inhibition rates of Yes phosphorylation activity (first and second screening)
# Type: biochemical
# Conditions: 10 μmol L−1 compound; for First screening IR (inhibition rate): mean of n = 4 wells; for Second screening IR (inhibition rate): dissolved from fresh powder, n = 4
# Procedure: All inhibitory assays of the phosphorylation activity of Yes were performed in accordance with the Promega Technical Manual for the ADP-Glo™ Kinase Assay (Fitchburg, WI, USA. Catalog number: V9102). The human recombinant Yes [a.a. 2–543 (end)] was purchased from BPS Bioscience (catalog number: 40488). The details of the assay protocol and reagent information are given elsewhere.
# The screening was conducted in three steps consisting of the first screening, the second screening, and the IC50 determination, as can be illustrated in Fig. 1b. First, we determined the inhibition rates of the 1,991 compounds. Each compound was placed in 4 wells of a 384-well plate. In total, 80 compounds were assayed on one plate and the other wells were used for positive and negative controls. The compounds were randomly placed on plates so that compounds proposed by one group were not placed on a plate together. A mean of four inhibition rates for each compound was compared to criteria for the first screening. […] Second, the inhibition rates of the screened compounds were determined on one plate using the same procedure of the first screening, where compounds were dissolved from fresh powder. […] Screened compounds were then evaluated for their IC50 values.
# T1 sequence (P07947 2-543): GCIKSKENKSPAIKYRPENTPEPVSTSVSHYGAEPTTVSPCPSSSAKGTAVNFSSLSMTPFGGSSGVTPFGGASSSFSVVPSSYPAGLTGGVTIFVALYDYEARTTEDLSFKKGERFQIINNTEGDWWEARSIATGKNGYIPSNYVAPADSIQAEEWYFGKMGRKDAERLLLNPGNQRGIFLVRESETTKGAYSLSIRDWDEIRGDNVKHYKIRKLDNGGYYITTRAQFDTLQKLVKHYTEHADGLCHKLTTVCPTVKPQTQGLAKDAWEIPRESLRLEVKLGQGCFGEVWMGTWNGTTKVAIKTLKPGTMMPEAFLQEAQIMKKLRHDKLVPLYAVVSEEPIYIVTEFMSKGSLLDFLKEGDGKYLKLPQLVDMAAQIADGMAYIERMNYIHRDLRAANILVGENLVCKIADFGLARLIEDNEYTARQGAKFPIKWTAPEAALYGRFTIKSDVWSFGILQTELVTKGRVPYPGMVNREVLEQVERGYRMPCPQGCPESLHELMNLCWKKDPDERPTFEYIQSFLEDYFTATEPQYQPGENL
SMILES,First screening IR (inhibition rate) [%],Second screening IR (inhibition rate) [%]
COc1cc(Br)c(CN(C)CCc2cnccn2)c(OC)c1 [Compound Z1632805805],7,
Cc1n[nH]c(C)c1C1CCCCCN1C(=O)Nc1cnc(N(C)C)nc1 (stereo not shown) [Compound Z1590996465],-1,
CCCN(CCC)c1ccc(/C=C/C(=O)c2ccc3c(c2)NC(=O)CO3)cc1 [Compound Z114950486],26,
Cc1cc(-c2ccccc2)cc2c3ccccc3c3ccccc3[n+]12.[O-][Cl+3]([O-])([O-])[O-] [Compound Z56761787],4,
COc1cccc(/C(O)=C2\C(=O)C(=O)N(CCCn3ccnc3)C2c2cccc([N+](=O)[O-])c2)c1 (stereo not shown) [Compound Z316156320],-1,
NS(=O)(=O)C1CC=CCC1 (stereo not shown) [Compound Z1517090453],1,
CCN(CCNC(=O)CCN1CCN(c2ccccn2)CC1)c1ccccc1C [Compound Z1255568722],27,
Cc1nn(C)c2nc(-c3ccccc3)cc(C(=O)Nc3ccc4c(c3)OCO4)c12 [Compound Z222976544],-2,
CNc1ccc(Nc2nccc(C(F)(F)F)n2)cn1 [Compound Z729056288],-20,
CC(C)N(CCNC(=O)CCc1nnc2n(Cc3ccccc3)c(=O)c3ccccc3n12)Cc1ccco1 [Compound Z1169067733],3,
O=C(COC(=O)c1ccccc1OCc1ccccc1)Nc1ccc2c(c1)CCC2 [Compound Z18387854],26,
COC(=O)c1ccc(CNC(=O)Cn2c(=O)c3c(ncn3CCC(C)C)n(Cc3ccccc3)c2=O)cc1 [Compound Z24149625],8,
CCN(CC)c1ccc(/C=C2\CCC(/C=N/NC(=O)NC3CCCCC3)=C2N2CCOCC2)cc1 [Compound Z56769590],-9,
Cl.Oc1c(-c2ccccc2)nc2ccc(Cl)cc2c1-c1ccccc1 [Compound Z166605136],8,
Cc1occc1C(=O)Nc1cc(Nc2nccc(C(F)(F)F)n2)ccc1F [Compound Z645121524],14,
CCN(CC)S(=O)(=O)c1ccc(Cl)c(NC(=O)COC(=O)c2cc(-c3ccc4cc(OC)ccc4c3)nc3ccccc23)c1 [Compound Z18792611],-19,
Cn1cc(/C=N/Nc2ccnc3cc(Cl)ccc23)cn1 [Compound Z65478686],2,
c1ccc(-c2cn3nc(NCCCN4CCOCC4)sc3n2)cc1 [Compound Z300797868],11,
CC(Sc1n[nH]c(-c2cccs2)n1)C(=O)c1c[nH]c2ccccc12 (stereo not shown) [Compound Z19450299],17,
Cc1oc(C)c(S(N)(=O)=O)c1C(=O)N1CCN(Cc2c(F)cccc2Cl)CC1 [Compound Z466082788],-3,
Cc1cc(C)c(C)c(S(=O)(=O)N(C)C2CCS(=O)(=O)C2)c1C (stereo not shown) [Compound Z71311814],1,
CCOc1ccc(CCNC(=O)c2cc3ccccc3[nH]2)cc1OCC [Compound Z28450151],-5,
CCn1cc(C(=O)c2cc(Cl)ccc2O)cc1-c1nc2ccccc2c(=O)[nH]1 [Compound Z135358570],7,
Cc1ccc(C)c(CN2CCN(c3nc4c(c(=O)[nH]c(=O)n4C)n3C/C=C/c3ccccc3)CC2)c1 [Compound Z237731644],5,
COC(=O)c1cc(-c2ccc(F)cc2)nc2c1c(C)nn2C1CCS(=O)(=O)C1 (stereo not shown) [Compound Z90289702],-1,
Cc1cccc(/C=C/c2cc(C(=O)O)c3ccccc3n2)c1 [Compound Z46532935],46,
COC(=O)c1cnc(N2CCCCC2)cc1N1CCCCC1 [Compound Z1465442209],0,
CC(C)(C)c1nc(SCC(=O)c2ccc3c(c2)CCC3)n[nH]1 [Compound Z335958518],-7,
COc1cc(C(=O)NC(C)c2ccc(-n3ccnc3)cc2)cc(Cl)c1OC(C)C (stereo not shown) [Compound Z27306302],7,

# Other lines, results leading:
First screening IR (inhibition rate) [%],Second screening IR (inhibition rate) [%],SMILES
-4,,Cl.Fc1ccc(-c2cc(-c3ccccc3)c3cc(Cl)ccc3n2)cc1 [Compound Z48950786]
13,,CCn1nc(NCc2cn[nH]c2-c2ccc(C)o2)cc1C1CC1 [Compound Z1421828757]
3,,CC(C)Oc1cc(CN(c2ncnc3c2cnn3C)C2CC2)ccn1 [Compound Z1739489055]
31,16,Cc1c(/C=C2/C(=O)Nc3ccc(F)cc32)cnn1C [Compound Z1517268554]
-1,,Cl.Fc1ccccc1-c1cc(-c2ccccc2)nc2ccc(Cl)cc12 [Compound Z48955825]
-7,,Cc1cc(N(Cc2cn3ccsc3n2)C(C)C)ccc1C(N)=O [Compound Z1127155490]
5,,Brc1ccc(-c2cc(-c3ccccc3)c3ccccc3n2)cc1.Cl [Compound Z48951036]
-1,,Cc1cccnc1NC(=O)c1ccc(CSc2ccccc2)cc1 [Compound Z58490632]
24,,O=C1Nc2ccccc2/C1=C\c1c(Cl)nc2sccn12 [Compound Z46060818]
6,,Cc1n[nH]c(C)c1/C=C/C(=O)c1ccc(N2CCCC2=O)cc1 [Compound Z424802904]
6,,CCCCOc1ccc(C(=O)NCC(=O)NCC(c2cccs2)N2CCOCC2)cc1 (stereo not shown) [Compound Z84671779]
2,,CCOC(=O)c1c(-c2ccc(OC)c(OC)c2)csc1NC(=O)CN1CCN(C(=O)c2ccccc2)CC1 [Compound Z46404770]
1,,O=c1[nH]c2cc(Cl)ccc2c(-c2ccccc2)c1CN1CCCCC1 [Compound Z1980444406]
10,,Cc1ccc(CNc2nc(-c3ccc(O)c(C(N)=O)c3)cs2)cc1 [Compound Z48851233]
15,,Cc1ccccc1CN1CCN(CC(=O)c2cc(C)n(CC3CCCO3)c2C)CC1 (stereo not shown) [Compound Z105957250]
17,,COc1ccc(CN2C(=O)c3ccccc3C2=O)cc1C(=O)Nc1ccc(N2CCN(C)CC2)cc1C [Compound Z27972767]
12,,CC(=O)Nc1ccc(SCc2noc(-c3cccc(C)c3)n2)cc1 [Compound Z388276110]
54,,Cc1ccc(-n2c(SCC(=O)Nc3ccc(N4CCOCC4)cc3)nnc2-c2cccnc2)c(C)c1 [Compound Z18666705]

First screening IR (inhibition rate) [%],Second screening IR (inhibition rate) [%],SMILES
1,,O=C(Nc1ccccc1)C1CCN(C(=O)C2CCOCC2)CC1 [Compound Z96031302]
42,,Cc1cc(N2CCN(C(=O)Nc3cc(C)c4cn[nH]c4c3)CC2)nc(C)n1 [Compound Z1557589830]
7,,CN1N=C(C(=O)N2CCN(S(=O)(=O)c3ccccc3C(F)(F)F)CC2)CCC1=O [Compound Z164780402]
9,,COc1ccc(OC)c(C2CCCN2C(=O)CSc2nnc(Nc3ccccc3C)s2)c1 (stereo not shown) [Compound Z96342510]
-11,,CC(=O)N1CCc2cc(NC(=O)c3ccccc3SCc3cn4ccccc4n3)ccc21 [Compound Z285525778]
15,,O=C(NCC(Cc1ccccc1)C(=O)O)c1ccc(-n2ccnc2)cc1 (stereo not shown) [Compound Z1603513622]
15,,Cc1ccccc1Nc1ncnc(N)n1 [Compound Z56791580]
6,,O=C(NC(C1CC1)C1CC1)C1CCCN1c1ncnc2sccc12 (stereo not shown) [Compound Z1190394303]
9,,Cc1ccc(S(=O)(=O)N(C)C2(C)CCS(=O)(=O)C2)cc1C (stereo not shown) [Compound Z150918412]
-3,,Cc1nnc(COC(=O)c2cc(-c3ccccc3)nc3c2cnn3C(C)C)o1 [Compound Z51550903]
33,-26,Cc1ccn2c(CNc3cc(C(N)=O)cc(F)c3C)cnc2c1 [Compound Z1462541066]
38,,Cc1nn(CCc2nc(-c3ccco3)cs2)c2nc(-c3cccs3)cc(C(F)(F)F)c12 [Compound Z55404718]
4,,FC(F)(F)c1ccnc(Nc2ccc3c(c2)OC2(CCCCC2)O3)n1 [Compound Z285712986]
3,,COc1cccc(NC(=O)CN(C)CC(=O)Nc2cc(Cl)ccc2C#N)c1 [Compound Z46385937]
-12,,COc1ccc2cc(-c3cc(C(=O)OCC(=O)Nc4cccc(C)c4)c4ccccc4n3)ccc2c1 [Compound Z18792577]
-8,,Cc1ccnn1-c1ccc(C(=O)N2CCC(N3CCCC3C(N)=O)CC2)cc1 (stereo not shown) [Compound Z968814168]
-4,,CC(NCc1ccc(CN2CCN(C)CC2)cc1)c1cccc(CO)c1 (stereo not shown) [Compound Z1532484795]
1,,CC(C)CN(C1CCS(=O)(=O)C1)S(=O)(=O)c1ccc(Cl)c(Cl)c1 (stereo not shown) [Compound Z45480661]
